The record followed here is ChEMBL document CHEMBL1154389, “Discovery of pyrimidine benzimidazoles as Src-family selective Lck inhibitors. Part II” (Bioorg Med Chem Lett, 2009).

Some results are limits rather than exact numbers.

Experiment [1] addresses Tyrosine-protein kinase HCK (Homo sapiens, UniProt P08631). Nature of the experiment: Inhibition of HCK.
Experiment [2] concerns the target Tyrosine-protein kinase Lck (Homo sapiens, UniProt P06239). Kind of experiment: Inhibition of LCK.
In experiment [3] the target is Proto-oncogene tyrosine-protein kinase Src (Homo sapiens, UniProt P12931). Kind of experiment: Inhibition of SRC.
Sequence of Proto-oncogene tyrosine-protein kinase Src (P12931 2-536 limits assumed): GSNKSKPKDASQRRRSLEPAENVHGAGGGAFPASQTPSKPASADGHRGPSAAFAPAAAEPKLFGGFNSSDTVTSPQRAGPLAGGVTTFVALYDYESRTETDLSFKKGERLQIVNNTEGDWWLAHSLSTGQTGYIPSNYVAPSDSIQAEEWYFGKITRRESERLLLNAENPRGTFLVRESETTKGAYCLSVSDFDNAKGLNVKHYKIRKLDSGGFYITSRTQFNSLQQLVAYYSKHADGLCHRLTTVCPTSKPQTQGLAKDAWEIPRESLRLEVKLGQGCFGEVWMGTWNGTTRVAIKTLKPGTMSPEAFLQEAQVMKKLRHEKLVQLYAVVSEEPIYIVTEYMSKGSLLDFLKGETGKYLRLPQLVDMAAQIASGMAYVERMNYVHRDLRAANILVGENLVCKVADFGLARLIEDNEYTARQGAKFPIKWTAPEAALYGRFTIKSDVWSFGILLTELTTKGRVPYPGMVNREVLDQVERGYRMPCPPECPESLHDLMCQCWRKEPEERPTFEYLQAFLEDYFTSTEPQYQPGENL

Sequence of Tyrosine-protein kinase Lck (P06239 whole entry): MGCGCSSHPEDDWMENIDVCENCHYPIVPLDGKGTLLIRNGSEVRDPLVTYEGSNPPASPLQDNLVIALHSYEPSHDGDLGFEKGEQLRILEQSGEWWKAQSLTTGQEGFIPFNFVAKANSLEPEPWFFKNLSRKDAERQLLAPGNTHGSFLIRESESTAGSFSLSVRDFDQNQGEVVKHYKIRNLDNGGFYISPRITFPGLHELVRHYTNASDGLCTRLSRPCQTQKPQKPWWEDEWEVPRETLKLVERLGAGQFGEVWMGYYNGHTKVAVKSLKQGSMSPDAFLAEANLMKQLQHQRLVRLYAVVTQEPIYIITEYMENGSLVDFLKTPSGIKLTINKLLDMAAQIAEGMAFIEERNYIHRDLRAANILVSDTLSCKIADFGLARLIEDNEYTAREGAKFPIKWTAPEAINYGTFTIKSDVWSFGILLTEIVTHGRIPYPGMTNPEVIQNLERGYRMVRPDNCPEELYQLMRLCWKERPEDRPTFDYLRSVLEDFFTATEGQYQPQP
Sequence of Tyrosine-protein kinase HCK (P08631 whole entry): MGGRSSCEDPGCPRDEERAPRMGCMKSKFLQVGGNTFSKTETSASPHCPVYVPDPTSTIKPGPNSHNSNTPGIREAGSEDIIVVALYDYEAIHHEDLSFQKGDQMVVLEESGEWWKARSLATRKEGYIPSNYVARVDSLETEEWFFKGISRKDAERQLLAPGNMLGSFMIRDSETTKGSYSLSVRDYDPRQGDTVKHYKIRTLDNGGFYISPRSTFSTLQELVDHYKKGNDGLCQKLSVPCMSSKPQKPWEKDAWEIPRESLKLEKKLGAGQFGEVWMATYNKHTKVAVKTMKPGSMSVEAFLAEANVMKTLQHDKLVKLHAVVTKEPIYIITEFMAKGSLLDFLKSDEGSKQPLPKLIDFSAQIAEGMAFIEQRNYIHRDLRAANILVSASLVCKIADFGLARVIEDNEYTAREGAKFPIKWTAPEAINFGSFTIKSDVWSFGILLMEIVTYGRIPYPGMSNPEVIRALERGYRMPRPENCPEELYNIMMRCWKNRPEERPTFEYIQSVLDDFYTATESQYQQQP

With `Cc1ccc(NC(=O)c2ccncc2C(C)(C)C)cc1Nc1nc2ccccc2n1-c1cc(N)ncn1`, in experiment [1], it took 46 nM to reach half-maximal inhibition (IC50).
On to `Cc1ccc(C(=O)Nc2cccc3cnccc23)cc1Nc1nc2ccccc2n1-c1cc(N)ncn1`, for which the values for the IC50 in experiment [2] and in experiment [1] were 616 nM and greater than 2500 nM, respectively.
Regarding `Cc1ccc(NC(=O)c2cccc(C(F)(F)F)c2)cc1Nc1nc2ccccc2n1-c1cc(NCCN2CCN(C)CC2)ncn1`, the IC50 worked out at 29 nM in experiment [2], 69 nM in experiment [1] and 305 nM in experiment [3].
The matching figures for `Cc1cccc(C(=O)Nc2ccc(C)c(Nc3nc4ccccc4n3-c3cc(N)ncn3)c2)c1`: 70 nM, 245 nM and 1540 nM.
For the compound `Cc1cccc(NC(=O)c2ccc(C)c(Nc3nc4ccccc4n3-c3cc(N)ncn3)c2)c1`, the IC50 in experiment [2] was 52 nM; in experiment [1] it was greater than 2500 nM.
With `Cc1ccc(NC(=O)c2cccc(C(F)(F)F)c2)cc1Nc1nc2ccccc2n1-c1cc(N2CCOCC2)ncn1`, the 50% inhibitory concentration (IC50) in experiment [2], in experiment [1] and in experiment [3] was greater than 2500 nM throughout.
With `CCN(CC)CCCCNc1cc(-n2c(Nc3cc(C(=O)Nc4cccc(C)c4)ccc3C)nc3ccccc32)ncn1`, the results for the concentration for half-maximal inhibition (IC50) in experiment [2] and in experiment [1] were 20 nM and 1810 nM, respectively.
As for `Cc1ccc(C(=O)Nc2cccc(C(F)(F)F)c2)cc1Nc1nc2ccccc2n1-c1cc(NCCCN2CCN(C)CC2)ncn1`, the concentration for half-maximal inhibition (IC50) in experiment [2] worked out at 18 nM; in experiment [1], 260 nM; in experiment [3], 494 nM.
Consider `Cc1ccc(NC(=O)c2cccc(C(F)(F)F)c2)cc1Nc1nc2ccccc2n1-c1cc(N)ncn1`, for which the 50% inhibitory concentration (IC50) in experiment [2] is 11 nM; in experiment [1], 43 nM; in experiment [3], 450 nM.
In the case of `Cc1ccc(NC(=O)c2cccc(C(F)(F)F)c2)cc1Nc1nc2ccccc2n1-c1cc(NCCN)ncn1`, the IC50 in experiment [2] is 230 nM; in experiment [1] it was greater than 2500 nM.
On to `Cc1ccc(NC(=O)c2cccc(C(F)(F)F)c2)cc1Nc1nc2ccccc2n1-c1cc(NCCCN)ncn1`, for which the IC50 in experiment [2] came to 23 nM; in experiment [1] it was 1960 nM.
For the compound `Cc1ccc(NC(=O)c2cccc(C(F)(F)F)c2)cc1Nc1nc2ccccc2n1-c1cc(NCCCN2CCN(C)CC2)ncn1`, the IC50 in experiment [2] was 6 nM; in experiment [1], 31 nM; in experiment [3], 128 nM.
Take `Cc1cn(-c2cc(NC(=O)c3ccc(C)c(Nc4nc5ccccc5n4-c4cc(N)ncn4)c3)cc(C(F)(F)F)c2)cn1`: the IC50 in experiment [2] is 238 nM; in experiment [1], 904 nM.
`Cc1ccc(C(=O)Nc2cccc(C(N)=O)c2)cc1Nc1nc2ccccc2n1-c1cc(N)ncn1`: the half-maximal inhibitory concentration (IC50) in experiment [2] and in experiment [1] was greater than 2500 nM throughout.
In the case of `Cc1cc(NC(=O)c2ccc(C)c(Nc3nc4ccccc4n3-c3cc(N)ncn3)c2)ccn1`, the results for the concentration for half-maximal inhibition (IC50) in experiment [2] and in experiment [1] were 177 nM and greater than 2500 nM, respectively.
`Cc1ccc(NC(=O)c2cccc(C(F)(F)F)c2)cc1Nc1nc2ccccc2n1-c1cc(NCCCC2COCCN2)ncn1` (stereo unspecified): the IC50 was determined as 26 nM in experiment [2], 49 nM in experiment [1] and 165 nM in experiment [3].
For `Cc1ccc(C(=O)Nc2cccc(C(F)(F)F)c2)cc1Nc1nc2ccccc2n1-c1cc(NCCCCN(C)C)ncn1`, the results for the half-inhibitory concentration (IC50) in experiment [2], in experiment [1] and in experiment [3] were 15 nM, 56 nM and 485 nM, respectively.
With `CCN1CCN(c2cc(C(=O)Nc3ccc(C)c(Nc4nc5ccccc5n4-c4cc(N)ncn4)c3)cc(C(F)(F)F)c2)CC1`, the IC50 in experiment [2] was found to be 11 nM; in experiment [1], 16 nM; in experiment [3], 71 nM.
Consider `Cc1ccc(C(=O)Nc2cccc(C(F)(F)F)c2)cc1Nc1nc2ccccc2n1-c1ncnc(NCCCN2CCN(C)CC2)n1`, for which the IC50 came to 12 nM in experiment [2] and 54 nM in experiment [1].
Take `COc1cccc(NC(=O)c2ccc(C)c(Nc3nc4ccccc4n3-c3cc(N)ncn3)c2)c1`: the IC50 in experiment [2] is 90 nM; in experiment [1], greater than 2500 nM.
Regarding `Cc1ccc(NC(=O)c2cc(CN3CCN(C)CC3)n(C(C)(C)C)n2)cc1Nc1nc2ccccc2n1-c1cc(N)ncn1`, the IC50 was 8 nM in experiment [2], 11 nM in experiment [1] and 177 nM in experiment [3].
Take `Cc1ccc(NC(=O)c2cccc(C(F)(F)F)c2)cc1Nc1nc2ccccc2n1-c1cc(NCCCCN(C)C)ncn1`: the IC50 amounted to 5 nM in experiment [2], 65 nM in experiment [1] and 139 nM in experiment [3].
Regarding `Cc1ccc(C(=O)Nc2cccc(C(F)(F)F)c2)cc1Nc1nc2ccccc2n1-c1cc(NCCN2CCN(C)CC2)ncn1`, the 50% inhibitory concentration (IC50) in experiment [2] was determined as 11 nM; in experiment [1], 130 nM; in experiment [3], 458 nM.
The matching figures for `Cc1ccc(NC(=O)c2cccc(C(F)(F)F)c2)cc1Nc1nc2ccccc2n1-c1cc(NCCC2CCCN2)ncn1` (stereo unspecified): 38 nM, 805 nM and greater than 2500 nM.
In the case of `CCN(CC)CCNc1cc(-n2c(Nc3cc(NC(=O)c4cccc(C(F)(F)F)c4)ccc3C)nc3ccccc32)ncn1`, the IC50 is 111 nM in experiment [2], 378 nM in experiment [1] and greater than 2500 nM in experiment [3].
On the same counts, the results for `Cc1ccc(NC(=O)c2cccc(C(F)(F)F)c2)cc1Nc1nc2ccccc2n1-c1cc(NCCO)ncn1` are 27 nM, 192 nM and 1920 nM.
On the same counts, the results for `Cc1ccc(NC(=O)c2cc(OC3CCN(C)CC3)cc(C(F)(F)F)c2)cc1Nc1nc2ccccc2n1-c1cc(N)ncn1` are 24 nM, 27 nM and 233 nM.
Consider `Cc1cccc(NC(=O)c2ccc(C)c(Nc3nc4ccccc4n3-c3cc(NCCCN4CCN(C)CC4)ncn3)c2)c1`, for which the figures for the concentration for half-maximal inhibition (IC50) in experiment [2] and in experiment [1] were 19 nM and 1870 nM, respectively.
On the same counts, the results for `Cc1ccc(C(=O)Nc2cccc(C(F)(F)F)c2)cc1Nc1nc2ccccc2n1-c1cc(N)ncn1` are 59 nM and greater than 2500 nM.
As to `Cc1ccc(NC(=O)c2cc(Cl)cc(Cl)c2)cc1Nc1nc2ccccc2n1-c1cc(N)ncn1`, the concentration for half-maximal inhibition (IC50) in experiment [2] was 58 nM; in experiment [1], 121 nM; in experiment [3] it was 530 nM.
In the case of `Cc1ccc(C(=O)Nc2ccccc2)cc1Nc1nc2ccccc2n1-c1cc(N)ncn1`, the figures for the IC50 in experiment [2] and in experiment [1] were 1080 nM and greater than 2500 nM, respectively.
Consider `Cc1ccc(C(=O)Nc2cccc(C(F)(F)F)c2)cc1Nc1nc2ccccc2n1-c1cc(NCCC#N)ncn1`, for which the figures for the 50% inhibitory concentration (IC50) in experiment [2] and in experiment [1] were 1370 nM and greater than 2500 nM, respectively.
As to `CCN1CCN(Cc2ccc(C(=O)Nc3ccc(C)c(Nc4nc5ccccc5n4-c4cc(N)ncn4)c3)cc2Cl)CC1`, the half-maximal inhibitory concentration (IC50) in experiment [2] worked out at 4 nM; in experiment [1], 9 nM; in experiment [3], 32 nM.
On to `Cc1ccc(NC(=O)c2cccc(C(F)(F)F)c2)cc1Nc1nc2ccccc2n1-c1cc(NCCc2ccccn2)ncn1`, for which the IC50 in experiment [2] turned out to be 204 nM; in experiment [1] it was 917 nM; in experiment [3], 2370 nM.
For `Cc1ccc(NC(=O)c2cccc(C(F)(F)F)c2)cc1Nc1nc2ccccc2n1-c1cc(NCCCCN)ncn1`, the half-inhibitory concentration (IC50) was 13 nM in experiment [2] and 345 nM in experiment [1].
Turning to `Cc1ccc(C(=O)Nc2cccc(C(F)(F)F)c2)cc1Nc1nc2ccccc2n1-c1ncnc(N)c1C`, the half-maximal inhibitory concentration (IC50) was 2400 nM in experiment [2], greater than 2500 nM in experiment [1] and greater than 2500 nM in experiment [3].
For the compound `COc1cc(-n2c(Nc3cc(NC(=O)c4cccc(C(F)(F)F)c4)ccc3C)nc3ccccc32)ncn1`, the IC50 in experiment [2] was 2030 nM; in experiment [1] it was greater than 2500 nM; in experiment [3], greater than 2500 nM.
As for `Cc1ccc(NC(=O)c2cc(C3CC3)n[nH]2)cc1Nc1nc2ccccc2n1-c1cc(N)ncn1`, the 50% inhibitory concentration (IC50) in experiment [2] was determined as 120 nM; in experiment [1] it was 446 nM; in experiment [3], 7360 nM.
`Cc1ccc(C(=O)Nc2cccc(Br)c2)cc1Nc1nc2ccccc2n1-c1cc(N)ncn1`: the figures for the concentration for half-maximal inhibition (IC50) in experiment [2] and in experiment [1] were 43 nM and greater than 2500 nM, respectively.
Take `CCN(CC)CCCCNc1cc(-n2c(Nc3cc(C(=O)Nc4cccc(C(F)(F)F)c4)ccc3C)nc3ccccc32)ncn1`: the half-maximal inhibitory concentration (IC50) in experiment [2] was 18 nM; in experiment [1], 475 nM; in experiment [3], 274 nM.
`Cc1ccc(NC(=O)c2cccc(C(F)(F)F)c2)cc1Nc1nc2ccccc2n1-c1cc(NC2CCN(C)CC2)ncn1`: the concentration for half-maximal inhibition (IC50) in experiment [2] is 168 nM; in experiment [1], greater than 2500 nM; in experiment [3], greater than 2500 nM.
In the case of `Cc1cccc(NC(=O)c2ccc(C)c(Nc3nc4ccccc4n3-c3cc(NCCCCN(C)C)ncn3)c2)c1`, the IC50 in experiment [2] was 22 nM; in experiment [1] it was greater than 2500 nM.
In the case of `Cc1ccc(C(=O)Nc2cccc(OC(F)F)c2)cc1Nc1nc2ccccc2n1-c1cc(N)ncn1`, the values for the IC50 in experiment [2] and in experiment [1] were 17 nM and greater than 2500 nM, respectively.
On the same counts, the results for `Cc1ccc(C(=O)Nc2cccc(C(C)(C)C)c2)cc1Nc1nc2ccccc2n1-c1cc(N)ncn1` are 22 nM and 139 nM.
Take `Cc1ccc(NC(=O)c2cc(N3CCN(C)CC3)cc(C(F)(F)F)c2)cc1Nc1nc2ccccc2n1-c1cc(N)ncn1`: the IC50 worked out at 11 nM in experiment [2], 20 nM in experiment [1] and 130 nM in experiment [3].
Consider `Cc1ccc(NC(=O)c2ccncc2Cl)cc1Nc1nc2ccccc2n1-c1cc(N)ncn1`, for which the IC50 in experiment [2] is 715 nM; in experiment [1] it was greater than 2500 nM.
Take `Cc1ccc(NC(=O)c2cccc(Cl)c2)cc1Nc1nc2ccccc2n1-c1cc(N)ncn1`: the results for the concentration for half-maximal inhibition (IC50) in experiment [2], in experiment [1] and in experiment [3] were 132 nM, 475 nM and 1650 nM, respectively.
For `Cc1ccc(C(=O)Nc2cccc(C(C)C)c2)cc1Nc1nc2ccccc2n1-c1cc(N)ncn1`, the IC50 turned out to be 30 nM in experiment [2] and 151 nM in experiment [1].
On the same counts, the results for `Cc1ccc(C(=O)Nc2cccc(Cl)c2)cc1Nc1nc2ccccc2n1-c1cc(N)ncn1` are 63 nM and greater than 2500 nM.
In the case of `Cc1ccc(NC(=O)c2cc(C(C)(C)C)nn2C)cc1Nc1nc2ccccc2n1-c1cc(N)ncn1`, the IC50 came to 316 nM in experiment [2], 844 nM in experiment [1] and 7190 nM in experiment [3].
Consider `Cc1ccc(NC(=O)c2cccc(C(F)(F)F)c2)cc1Nc1nc2ccccc2n1-c1cc(Cl)ncn1`, for which the half-maximal inhibitory concentration (IC50) in experiment [2] came out at 1160 nM; in experiment [1], 3830 nM; in experiment [3] it was 16500 nM.
On to `Cc1cccc(NC(=O)c2ccc(C)c(Nc3nc4ccccc4n3-c3cc(NCCN4CCN(C)CC4)ncn3)c2)c1`, for which the IC50 in experiment [2] was 38 nM; in experiment [1], greater than 2500 nM.

Usually IC50 stands for the concentration that inhibits the measured activity by half.
